Data: patent US9339523B2, “Estrogenic extracts of Asparagus conchinchinensis (Lour.) Merr of the Liliaceae family and uses thereof” (BIONOVO, INC., priority 2007, dated 2016)

Assays:
ERβ [1] = target: T1, ERβ (Homo sapiens, UniProt Q92731); assay: TNF-RE tkLuc repression in U2OS cells with ERβ; format: cell-based; design: expressed in transfected cells; host or cells: U2OS (A10)
Experimental: (§1) For experiments, cells were collected, transferred to a cuvette, and then electroporated with a Bio-Rad gene pulser as described previously using 3 μg of reporter plasmid and 1 μg of ERα or ERβ expression vectors. After electroporation, the cells were resuspended in media and plated at 1 ml/dish in 12-well multiplates. […] The concentration of hormone required to produce a half-maximal induction (EC50) or inhibition (IC50) of luciferase activity was calculated with the Prism curve-fitting program (Graph Pad Software, version 2.0b). […] The cells were plated in duplicate at a density of 25,000 cells/35-mm plate in tissue culture medium containing 3% stripped fetal bovine serum. […] After 8 days the cells were counted with a Coulter counter.
(§2) The extracts (a and b) were than decanted and only the soluble material was used.

TNF-RE tkLuc = TNF-RE tkLuc reporter, ERα and ERβ not separated (Example 2); format: cell-based, human; conditions: for activation of TNF-RE tkLuc: antiestrogens, in contrast to E2
Experimental: Plasmid Construction. […] ERβ mutants were created with QuikChange site-directed mutagenesis kits (Stratagene), by using oligonucleotides containing the mutation. The mutants were sequenced with Sequenase kits (Amersham Pharmacia) to verify the presence of the mutation.
as §1

ERβ [2] = target: T1, ERβ; assay: ERE-tk-Luc luciferase assay in U2OS cells with ERβ; format: cell-based; design: expressed in transfected cells; host or cells: U2OS (human osteosarcoma); conditions: competition with the extract, FIG. 6
Experimental: as §1, §2

[3] = five years of therapy; cited from earlier work
[4] = women at high risk for breast cancer; cited from earlier work

T1 sequence (Q92731 whole entry): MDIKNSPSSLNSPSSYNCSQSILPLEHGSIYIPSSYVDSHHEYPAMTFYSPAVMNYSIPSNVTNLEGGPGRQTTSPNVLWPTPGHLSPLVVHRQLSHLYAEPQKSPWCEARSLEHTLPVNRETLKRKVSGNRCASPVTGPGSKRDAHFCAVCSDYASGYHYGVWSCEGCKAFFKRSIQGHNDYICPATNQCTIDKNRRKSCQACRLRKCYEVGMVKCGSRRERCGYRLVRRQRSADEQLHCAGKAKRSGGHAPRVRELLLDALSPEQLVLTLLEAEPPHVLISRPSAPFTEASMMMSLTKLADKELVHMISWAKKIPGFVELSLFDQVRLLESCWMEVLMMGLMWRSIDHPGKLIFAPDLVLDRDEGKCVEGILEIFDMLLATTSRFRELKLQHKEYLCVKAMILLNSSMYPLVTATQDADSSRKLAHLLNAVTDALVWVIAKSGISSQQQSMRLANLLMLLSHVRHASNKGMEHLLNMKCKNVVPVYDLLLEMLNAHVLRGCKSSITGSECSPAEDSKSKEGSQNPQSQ

C[C@]12CC[C@@H]3c4ccc(O)cc4CC[C@H]3[C@@H]1CC[C@@H]2O [E2, estradiol]
repression of TNF-α activation of TNF-RE (ERβ [1]): 100%
repression of TNF-α activation of TNF-RE tkLuc (TNF-RE tkLuc; in the presence of ERα and ERβ): 60-80%

C[C@]12CC[C@@H]3c4ccc(O)cc4C[C@@H](CCCCCCCCC[S+]([O-])CCCC(F)(F)C(F)(F)F)[C@H]3[C@@H]1CC[C@@H]2O (stereo partly shown) [ICI 182, 780]
effect on the repression induced by E2 (TNF-RE tkLuc; TNF-RE tkLuc): abolished the repression induced by E2
activation of TNF-RE tkLuc (TNF-RE tkLuc): 2 fold

O=C(c1ccc(OCCN2CCCCC2)cc1)c1c(-c2ccc(O)cc2)sc2cc(O)ccc12 [raloxifene]
effect on the repression induced by E2 (TNF-RE tkLuc; TNF-RE tkLuc): abolished the repression induced by E2
activation of TNF-RE tkLuc (TNF-RE tkLuc): 2 fold
effect on the extract's stimulation of the ERE with ERβ (ERβ [2]): is inhibited

CC/C(=C(\c1ccccc1)c1ccc(OCCN(C)C)cc1)c1ccccc1 [tamoxifen]
reduction of mortality from breast cancer [3]: 22%
reduction of the risk of recurrences [3]: 42%
effect on the repression induced by E2 (TNF-RE tkLuc; TNF-RE tkLuc): abolished the repression induced by E2
activation of TNF-RE tkLuc (TNF-RE tkLuc): 2 fold
reduction of the risk of primary invasive breast cancer [4]: 49%

TNF-α
activation of 3 copies of the TNF-RE (−125 to −82) upstream of the tk promoter (TNF-RE tkLuc; TNF-RE tkLuc): 5-10 fold
